Columns and labels:
fat absorption = details: oral; protamine dose of 0.5 g; cited from earlier work
[1] = tested on: blood tri-glyceride level; assay: Animal test of fat absorption suppressive effect: blood tri-glyceride AUC after corn oil; type: in vivo; details: Male SD rats
Experimental: (1) Sample for control group: Distilled water was filtrated by a membrane filter (DISMIC-13CP, PTFE, φ0.45 μm, ADVANTEC) and used as a test sample for the control group.
(2) Sample for protamine group: Protamine (2.50 g) was dissolved in distilled water (50 mL) filtrated by a membrane filter and used as a test sample for the protamine group.
(3) Sample for alginate mixture group: As a dispersant, soybean polysaccharide (SM-700, 400 mg) was dissolved in distilled water (50 mL) filtrated by a membrane filter to prepare a 0.8% dispersant solution. Protamine (2.00 g) was dissolved with the 0.8% dispersant solution (20 mL) to prepare a protamine solution. To the protamine solution (12.5 mL), an alginate solution (12.5 mL), which was prepared by dissolving alginate (1.60 g) in the 0.8% dispersant solution (20 mL), was added while stirring to prepare a protamine complex suspension and used as a test sample for an alginate complex (mixture) group.
(4) Sample for gum arabic mixture group: Protamine (2.00 g) was dissolved in distilled water (20 mL) to prepare a protamine solution. […]
Evaluation was performed using Male SD rats (6 weeks old, 7 rats per group). […] Using the plasma samples, a blood tri-glyceride level was measured and compared to the control group with respect to blood-level area under the curve (AUC).

In the case of protamine, the “fat absorption suppressive effect when orally taken by humans” value (fat absorption) is given as “exerts a fat absorption suppressive effect”, the “fat absorption suppressive effect compared to the control group” value ([1]; oral, corn oil load) is given as “significant fat absorption suppressive effect” and the “AUC relative to control group (blood tri-glyceride level)” value ([1]; test substance 5 mL/kg orally (corresponding to 0.5 g/kg in terms of protamine), then corn oil 5 mL/kg, blood at 0, 1.5, 3.0, 4.5 hours) is given as 78 ± 7%.

From patent US8399014B2, “Physiologically active complex comprising protamine and/or salt therefor and an acidic macromolecular substance, and use thereof” (Maruha Nichiro Foods, Inc., priority 2008, dated 2013)
